US5962502A, “Polyamidic acid derivatives with antigastrin activity, a method for their preparation, and their pharmaceutical use” (priority 1993, dated 1999)

Columns and labels:
central CCK-B receptor = biological target: T1, central CCK-B receptor (Cavia porcellus, UniProt H0VZC5); assay: Inhibition of the binding of [3-H][N-methyl-N-leucine]CCK-8 to guinea-pig cortical membranes; settings: for IC50: guinea-pig cortical membranes, 150 minutes at 25° C.
T1 construct: Cerebral cortices of male white guinea-pigs were thus used; from tissue; host or cells: cerebral cortex membranes of male white guinea-pigs
T1 sequence (H0VZC5 1-426): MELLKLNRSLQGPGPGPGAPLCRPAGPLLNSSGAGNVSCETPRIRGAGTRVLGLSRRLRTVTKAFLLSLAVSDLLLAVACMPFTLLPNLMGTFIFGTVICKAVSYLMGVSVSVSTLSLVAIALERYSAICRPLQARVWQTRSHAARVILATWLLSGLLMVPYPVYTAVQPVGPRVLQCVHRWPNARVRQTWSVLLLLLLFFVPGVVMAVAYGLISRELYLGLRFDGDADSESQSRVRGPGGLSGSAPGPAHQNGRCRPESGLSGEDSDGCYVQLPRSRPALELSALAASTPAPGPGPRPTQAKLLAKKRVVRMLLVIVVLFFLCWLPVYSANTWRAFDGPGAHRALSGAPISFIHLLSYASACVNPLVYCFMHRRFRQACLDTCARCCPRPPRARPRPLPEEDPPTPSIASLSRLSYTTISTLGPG
Description: The ability of the compounds of the invention to interact with the central CCK-B receptor was evaluated with the use of non-sulphated [3-H] […] 225 (3) (1990), 1278-1286].
Cerebral cortices of male white guinea-pigs were thus used, according to the method mentioned above, so as to obtain a membrane content corresponding to about 300 mcg of proteins/ml. The membranes were incubated together with the radioactive tracer and the compounds under test for 150 minutes at 25° C. After the supernatant had been discarded, the radioactivity associated with the pellet was determined with a liquid scintillator. The specific binding was determined as the difference between the binding in the absence and in the presence of 5.10^-6 M CCK-8.

mouse = assay: Black and White Box test in the mouse (anxiolytic activity); format: in vivo; settings: for LIGHT TIME TOTAL TIME / LIGHT-DARK MOVEMENTS / MOV. DARK % TOTAL MOV. / TOTAL MOVEMENTS: 5 minutes
Description: It has recently been postulated that the central CCK-B receptor has an important role in anxiety. This is in accordance with studies also carried out in man, which have shown that the central CCK-B mechanisms have an important function in the mediation of panic attacks [Bradwejn, H. et al; J. Psychopharmacology 6 (1992), 345]. […] This experimental model, which was carried out according to Costall et al [Pharm. Biochem. Behav. 32 (1989), 777-785], used a box with dimensions of 45×21×21(h) cm divided into 2 compartments which communicated with one another through a 13×5 cm hole. The smaller compartment (1/3 of the total area) had black walls, whereas the larger had transparent walls and was illuminated by a lamp which was placed 20 cm above the box and supplied light at 20W. Under the floor there was an activity meter which recorded the movements performed by the animal in the individual compartments. The experiment was started by placing the animal in the centre of the illuminated box; as well as movements, the time which the animal spent in the dark and in the light areas and the number of movements between the 2 compartments were then recorded for 5 minutes. A control animal generally preferred to stay in the dark compartment where it felt better protected from an unusual environmental situation which put it in a state of anxiety. In this experimental model, a compound having anxiolytic activity decreased the % of movements into the dark in comparison with the total movements, increased the movements between the two light-dark compartments, and increased the % of time spent in the light in comparison with the total time.
The results obtained are shown in Table 7, where the activities obtained with compounds 9, 21 and 51 are given, tested in comparison with diazepam.

O=C(O)Cc1ccc(NC(=O)CC[C@@H](NC(=O)c2cc(Cl)cc(Cl)c2)C(=O)N2CCC3(CCCC3)CC2)cc1 [Compound 57]
IC50 (central CCK-B receptor): 7730 nM

CN(C(=O)c1cc(Cl)cc(Cl)c1)[C@H](CCC(=O)N[C@H](Cc1c[nH]c2ccccc12)C(=O)O)C(=O)N1CCC2(CCCC2)CC1 [Compound 46]
IC50 (central CCK-B receptor): 120 nM

CC(NC(=O)CC[C@@H](NC(=O)c1cc(Cl)cc(Cl)c1)C(=O)N1CCC2(CCCC2)CC1)C(=O)O (stereo partly shown) [Compound 5]
IC50 (central CCK-B receptor): 1320 nM

O=C(CC[C@@H](NC(=O)c1cccc(Cl)c1)C(=O)NCCC12CC3CC(CC(C3)C1)C2)N[C@H](Cc1c[nH]c2ccccc12)C(=O)O [Compound 31]
IC50 (central CCK-B receptor): 13900 nM

O=C(O)CC[C@@H](NC(=O)CC[C@@H](NC(=O)c1cc(Cl)cc(Cl)c1)C(=O)N1CCC2(CCCC2)CC1)C(=O)Nc1ccc2ccccc2c1 [Compound 39]
IC50 (central CCK-B receptor): 700 nM

O=C(C[C@@H](NC(=O)c1cc(Cl)cc(Cl)c1)C(=O)N1CCC2(CCCC2)CC1)N[C@H](Cc1ccccc1)C(=O)O [Compound 44]
IC50 (central CCK-B receptor): 350 nM

O=C(CC[C@@H](NC(=O)c1cc(Cl)cc(Cl)c1)C(=O)N1CCC2(CCCC2)CC1)N[C@@H](C(=O)O)c1ccccc1 [Compound 13]
IC50 (central CCK-B receptor): 420 nM

O=C(CC[C@H](NC(=O)c1cc(Cl)cc(Cl)c1)C(=O)N1CCC2(CCCC2)CC1)N[C@H](Cc1ccccc1)C(=O)O [Compound S-9, reference compound]
times less active than its R diastereoisomer, compound 9 (centre *) (central CCK-B receptor; binding, guinea-pig cortex): about 250 times
IC50 (central CCK-B receptor): 38600 nM
CCK-B-antagonistic activity in vitro, result in words (central CCK-B receptor; see Table 3): weak CCK-B-antagonistic activity
EFF. % VS CONTROL (LIGHT TIME TOTAL TIME) (mouse; 1.0 mg/kg IP): 3%
EFF. % VS CONTROL (LIGHT-DARK MOVEMENTS) (mouse; 1.0 mg/kg IP): 6%
EFF. % VS CONTROL (MOV. DARK % TOTAL MOV.) (mouse; 1.0 mg/kg IP): -5%
LIGHT TIME TOTAL TIME (mouse; 1.0 mg/kg IP): 28.5%
LIGHT-DARK MOVEMENTS (mouse; 1.0 mg/kg IP): 18.2
MOV. DARK % TOTAL MOV. (mouse; 1.0 mg/kg IP): 57%
TOTAL MOVEMENTS (mouse; 1.0 mg/kg IP): 528
EFF. % VS CONTROL (LIGHT TIME TOTAL TIME) (mouse; 10.0 mg/kg IP): 0%
EFF. % VS CONTROL (LIGHT-DARK MOVEMENTS) (mouse; 10.0 mg/kg IP): 0%
EFF. % VS CONTROL (MOV. DARK % TOTAL MOV.) (mouse; 10.0 mg/kg IP): +3%
LIGHT TIME TOTAL TIME (mouse; 10.0 mg/kg IP): 24.9%
LIGHT-DARK MOVEMENTS (mouse; 10.0 mg/kg IP): 14.4
MOV. DARK % TOTAL MOV. (mouse; 10.0 mg/kg IP): 62%
TOTAL MOVEMENTS (mouse; 10.0 mg/kg IP): 495
anxiolytic activity, result in words (mouse; Black and White Box test, IP): completely inactive

O=C(O)CC[C@@H](NC(=O)CC[C@@H](NC(=O)c1cc(Cl)cc(Cl)c1)C(=O)N1CCC2(CCCC2)CC1)C(=O)NCCc1ccccc1 [Compound 41]
IC50 (central CCK-B receptor): 790 nM

O=C(O)CNC(=O)CC[C@@H](NC(=O)c1cc(Cl)cc(Cl)c1)C(=O)N1CCC2(CCCC2)CC1 [Compound 1]
IC50 (central CCK-B receptor): 1060 nM

O=C(O)CCCNC(=O)CC[C@@H](NC(=O)c1cc(Cl)cc(Cl)c1)C(=O)N1CCC2(CCCC2)CC1 [Compound 4]
IC50 (central CCK-B receptor): 1250 nM

O=C(O)CC[C@@H](NC(=O)CC[C@@H](NC(=O)c1cc(Cl)cc(Cl)c1)C(=O)N1CCC2(CCCC2)CC1)C(=O)N1CCC2(CCCC2)CC1 [Compound 36]
IC50 (central CCK-B receptor): 1700 nM

O=C(CC[C@@H](NC(=O)c1cc(Cl)cc(Cl)c1)C(=O)N1CCC2(CCCC2)CC1)NCc1ccc(C(=O)O)cc1 [Compound 56]
IC50 (central CCK-B receptor): 19500 nM

CSCCC(NC(=O)CC[C@@H](NC(=O)c1cc(Cl)cc(Cl)c1)C(=O)N1CCC2(CCCC2)CC1)C(=O)O (stereo partly shown) [Compound 7]
IC50 (central CCK-B receptor): 510 nM
